What was measured:
panelists = experiment: Panel tasting of aqueous solutions for cooling intensity versus menthol at 2 ppm; type: in vivo; settings: aqueous solution; concentration with cooling intensity similar or slightly higher than a solution of menthol at 2 ppm
Source text: Experiments on cooling properties/intensities.
A group of panelists was asked to taste various aqueous solutions of compounds of formula (I) and to indicate which solutions had cooling intensities similar or slightly higher than that of a solution of menthol at 2 ppm.

panelist = experiment: Application in toothpaste: panelist's teeth brushed with toothgel containing the cooling compound; type: in vivo; settings: 0.20 g of 5% (w/w) ethanol solution in opaque toothgel with peppermint oil and saccharin, after brushing and rinsing
Procedure: [table] The chemicals were mixed in the toothgel, a piece of toothgel was put on a toothbrush and a panelist's teeth were brushed. The mouth was rinsed with water and the water was spit out. […] The cooling perception lasted for 90 minutes.

| Structure (SMILES) | melting point [°C] | Concentration (panelists) | Duration of cooling perception (panelist) [min] | Cooling sensation felt by the panelist (panelist; all areas of the mouth) |
| --- | --- | --- | --- | --- |
| CC1CCC(C(C)C)C(O)C1 (stereo not drawn) [Example 1-Menthol, 1-Menthol, reference compound] |  | 2 ppm solution |  |  |
| Cc1ccc(C(=O)OC(=Cc2nc3ccccc3n2C)c2ccc(C)cc2)cc1 [Example 8, 2-(1-methyl-1H-benzo[d]imidazol-2-yl)-1-p-tolylvinyl 4-methylbenzoate] |  | 2.0 ppm |  |  |
| COc1ccc(C(=O)OC(=Cc2nc3ccc(C)cc3n2C(C)C)c2ccc(OC)cc2)cc1 [Example 5, 2-(1-isopropyl-6-methyl-1H-benzo[d]imidazol-2-yl)-1-(4-methoxyphenyl)vinyl 4-methoxybenzoate] | 125 to 130 | 0.5 ppm | 90 | intense cooling sensation |
| COc1ccc(C(=O)OC(=Cc2nc3ccccc3n2C)c2ccc(OC)cc2)cc1 [1-(4-methoxyphenyl)-2-(1-methyl-1H-benzo[d]imidazol-2-yl)vinyl 4-methoxybenzoate] |  | 0.5 ppm |  |  |
| CCNC(=O)C1CC(C)CCC1C(C)C (stereo not drawn) [N-ethyl p-menthanecarboxamide (WS-3), N-ethyl p-menthanecarboxamide, reference compound] |  | 1.5 ppm |  |  |

More lines, main results first:

| melting point [°C] | Structure (SMILES) | Concentration (panelists) | Duration of cooling perception (panelist) [min] | Cooling sensation felt by the panelist (panelist; all areas of the mouth) |
| --- | --- | --- | --- | --- |
| 147 to 152 | COc1ccc(C(=O)OC(=Cc2nc3cc(C)ccc3n2C(C)C)c2ccc(OC)cc2)cc1 [Example 3, 2-(1-isopropyl-5-methyl-1H-benzo[d]imidazol-2-yl)-1-(4-methoxyphenyl)vinyl 4-methoxybenzoate] | 0.5 ppm |  |  |
| 158 to 165 | Cc1ccc2nc(C=C(OC(=O)c3ccc(Cl)cc3)c3ccc(Cl)cc3)n(C(C)C)c2c1 [Example 4, 1-(4-chlorophenyl)-2-(1-isopropyl-6-methyl-1H-benzo[d]imidazol-2-yl)vinyl 4-chlorobenzoate] |  |  |  |
| 155 to 160 | COc1ccc(C(=O)OC(=Cc2nc3cc(C)ccc3n2C(C)C)c2ccc(Cl)cc2)cc1 [Example 2, 1-(4-chlorophenyl)-2-(1-isopropyl-5-methyl-1H-benzo[d]imidazol-2-yl)vinyl 4-methoxybenzoate] |  |  |  |

Source: patent US20090312384A1, “Benzimidazole As Cooling Compounds” (priority 2006, published 2009)
